Experimental data: patent US20260184726A1, “HETEROCYCLIC COMPOUNDS AS KINASE INHIBITORS, COMPOSITIONS, AND METHODS OF USE THEREOF” (JS INNOMED HOLDINGS LTD., priority 2022, published 2026)

Assays:
BAF3 cells = test: BAF3 Cell Proliferation Assay (CellTiter-Glo, without RET driven, IL-3); type: cell-based; details: Mus musculus; growth inhibition in BAF3 cells, 72 hours, with IL-3; read-out: BAF3 Cellular Activity
Protocol: Compounds disclosed herein were tested for the inhibition BAF3 cells proliferation without RET driven by CellTiter-Glo assay. In this assay, a complete media was prepared by adding 10% fetal bovine serum and 1 ng/ml IL-3 to RPMI-1640 medium (Life technology) for BAF3 cells. BAF3 cells were added to each of 88 wells of a 96 well plate at a seeding density of 2,000 cells/well/95 μL. The cells were allowed to attach to the plate by incubating at 37° C. for 24 hours. The compound was dissolved in DMSO (SIGMA). A solution of test compound was prepared in complete media by serial dilution to obtain the following concentrations: 200 μM, 66.7 μM, 22.2 μM, 7.4 μM, 2.5 μM, 0.82 μM, 0.27 μM, 0.091 μM and […]. The test compound solution (5 μL) was added to each of 80 cell-containing wells. The final concentrations of the compound were following: 10 μM, 3.33 μM, 1.11 μM, 0.37 μM, 0.12 μM, 0.041 μM, 0.014 μM, 0.0046 μM and 0.0015 μM. The final concentration of DMSO is 0.1%. To the 8 remaining cell-containing wells, only complete media (containing 0.1% DMSO) was added to form a control group in order to measure maximal proliferation. To the remaining 8 empty wells, complete media was added to for a vehicle control group in order to measure background. The plates were incubated at 37° C. for 72 hours. 50 μl of CellTiter-Glo® Reagent was added to each well. The contents were mixed for 2 minutes on an orbital shaker to induce cell lysis, and then were incubated at room temperature for 10 minutes to stabilize luminescent signal. Luminescence was recorded on Paradigm. Cell viability (CV %) was calculated relative to vehicle (DMSO) treated control wells. The IC50 was calculated using GraphPad Prism.

BAF3-KIF5B-RET cells = biological target: T1, BAF3-KIF5B-RET cells (Homo sapiens, UniProt P07949); test: BAF3-KIF5B-RET Cell Proliferation Assay (CellTiter-Glo); type: cell-based; details: growth inhibition, 72 hours; Table 2; read-out: BA/F3-KIF5B-RET Cellular activity
T1 construct: fused on or other part: P33176 (Kinesin-1 heavy chain)
T1 sequence (P07949 whole entry, change not shown, the tested form may be a part): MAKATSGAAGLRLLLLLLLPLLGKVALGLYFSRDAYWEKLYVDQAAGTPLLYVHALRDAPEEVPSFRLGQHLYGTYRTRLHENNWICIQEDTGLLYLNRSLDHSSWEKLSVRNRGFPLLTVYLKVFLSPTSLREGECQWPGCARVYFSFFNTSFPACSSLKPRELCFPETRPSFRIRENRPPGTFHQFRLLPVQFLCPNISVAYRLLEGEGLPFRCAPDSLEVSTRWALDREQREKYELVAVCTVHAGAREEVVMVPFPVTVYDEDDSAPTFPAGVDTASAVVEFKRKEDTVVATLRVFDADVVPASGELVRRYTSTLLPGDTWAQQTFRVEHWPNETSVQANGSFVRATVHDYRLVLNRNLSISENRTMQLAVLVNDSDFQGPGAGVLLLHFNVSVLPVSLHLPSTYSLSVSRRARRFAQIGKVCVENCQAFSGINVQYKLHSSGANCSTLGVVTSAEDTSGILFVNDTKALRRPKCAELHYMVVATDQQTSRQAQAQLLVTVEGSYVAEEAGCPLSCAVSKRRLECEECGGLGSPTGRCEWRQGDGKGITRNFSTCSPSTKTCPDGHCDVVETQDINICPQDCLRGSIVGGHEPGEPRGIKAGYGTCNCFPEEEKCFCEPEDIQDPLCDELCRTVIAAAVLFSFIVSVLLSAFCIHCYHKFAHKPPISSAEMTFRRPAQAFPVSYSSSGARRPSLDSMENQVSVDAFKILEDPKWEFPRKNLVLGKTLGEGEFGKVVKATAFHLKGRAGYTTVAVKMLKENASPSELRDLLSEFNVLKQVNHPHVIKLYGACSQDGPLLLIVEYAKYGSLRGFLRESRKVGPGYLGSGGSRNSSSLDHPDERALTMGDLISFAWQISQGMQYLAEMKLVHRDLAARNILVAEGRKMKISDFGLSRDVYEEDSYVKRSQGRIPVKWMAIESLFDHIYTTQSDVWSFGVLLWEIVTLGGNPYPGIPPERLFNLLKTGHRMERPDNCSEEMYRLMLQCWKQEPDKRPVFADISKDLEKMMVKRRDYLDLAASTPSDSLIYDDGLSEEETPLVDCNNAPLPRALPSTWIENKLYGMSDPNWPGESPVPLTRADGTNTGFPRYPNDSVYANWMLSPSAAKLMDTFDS
Protocol: Compounds disclosed herein were tested for the inhibition of RET by a cancer cell proliferation assay commonly known as CellTiter-Glo assay. In this assay, a complete media was prepared by adding 10% fetal bovine serum to RPMI-1640 medium (Life technology) for RET-driven cancer cells (BAF3-FIF5B-RET, Ba/F3-KIF5B-RET-G810R, Ba/F3-TEL-RET-M918T or Ba/F3-KIF5B-RET-V804M). Individual RET-driven type of cells were added to each of 88 wells of a 96 well plate at a seeding density of 2,000 cells/well/95 μL. The cells were allowed to attach to the plate by incubating at 37° C. for 24 hours. The compound was dissolved in DMSO (SIGMA). A solution of test compound was prepared in complete media by serial dilution to obtain the following concentrations: 20 μM, 6.67 μM, 2.22 μM, 0.74 μM, 0.25 μM, 0.082 μM, 0.027 μM, 0.0091 μM and 0.0030 μM. The test compound solution (5 μL) was added to each of 80 cell-containing wells. The final concentrations of the compound were following: 1 μM, 0.33 μM, 0.11 μM, 0.037 μM, 0.012 μM, 0.0041 μM, 0.0014 μM, 0.00046 μM and 0.00015 μM. The final concentration of DMSO is 0.1%. To the 8 remaining cell-containing wells, only complete media (containing 0.1% DMSO) was added to form a control group in order to measure maximal proliferation. To the remaining 8 empty wells, complete media was added to for a vehicle control group in order to measure background. The plates were incubated at 37° C. for 72 hours. 50 μl of CellTiter-Glo® Reagent was added to each well. Mix contents for 2 minutes on an orbital shaker to induce cell lysis. Incubate at room temperature for 10 minutes to stabilize luminescent signal. Record luminescence on Paradigm. Cell viability (CV %) was calculated relative to vehicle (DMSO) treated control wells. The IC50 was calculated using GraphPad Prism.

Compound	IC50 (BAF3 cells)	GI50 (BAF3-KIF5B-RET cells)
COc1ccc(CN2C3CC2CN(c2ccc(-c4cc(-c5ccc(S(N)(=O)=O)cn5)cn5ncc(C#N)c45)cn2)C3)cn1 [Example 36, 6-(3-cyano-4-(6-(6-((6-methoxypyridin-3-yl)methyl)-3,6-diazabicyclo[3.1.1]heptan-3-yl)pyridin-3-yl)pyrazolo[1,5-a]pyridin-6-yl)pyridine-3-sulfonamide]	8210 nM	16.6 nM
COc1ccc(CN2C3CC2CN(c2ccc(-c4cc(-c5ncc(C(C)(C)O)cc5F)cn5ncc(C#N)c45)cn2)C3)cn1 [Example 24, 6-(3-fluoro-5-(2-hydroxypropan-2-yl)pyridin-2-yl)-4-(6-(6-((6-methoxypyridin-3-yl)methyl)-3,6-diazabicyclo[3.1.1]heptan-3-yl)pyridin-3-yl)pyrazolo[1,5-a]pyridine-3-carbonitrile]	2540 nM	3.5 nM
COc1ccc(CN2C3CC2CN(c2ccc(-c4cc(-c5ccc(OCC(C)(C)O)cn5)cn5ncc(C#N)c45)cn2)C3)cn1 [Example 32, 6-(5-(2-hydroxy-2-methylpropoxy)pyridin-2-yl)-4-(6-(6-((6-methoxypyridin-3-yl)methyl)-3,6-diazabicyclo[3.1.1]heptan-3-yl)pyridin-3-yl)pyrazolo[1,5-a]pyridine-3-carbonitrile]	1620 nM	1.4 nM
COc1ccc(CN2C3CC2CN(c2ccc(-c4cc(-c5ccn(CC(C)(C)O)n5)cn5ncc(C#N)c45)cn2)C3)cn1 [Example 34, 6-(1-(2-hydroxy-2-methylpropyl)-1H-pyrazol-3-yl)-4-(6-(6-((6-methoxypyridin-3-yl)methyl)-3,6-diazabicyclo[3.1.1]heptan-3-yl)pyridin-3-yl)pyrazolo[1,5-a]pyridine-3-carbonitrile]	1800 nM	0.7 nM
COc1ccc(CN2C3CC2CN(c2ccc(-c4cc(-c5cnn(CC(C)(C)O)c5)cn5ncc(C#N)c45)cn2)C3)cn1 [Example 35, 6-(1-(2-hydroxy-2-methylpropyl)-1H-pyrazol-4-yl)-4-(6-(6-((6-methoxypyridin-3-yl)methyl)-3,6-diazabicyclo[3.1.1]heptan-3-yl)pyridin-3-yl)pyrazolo[1,5-a]pyridine-3-carbonitrile]	340 nM	0.5 nM
COc1ccc(CN2C3CC2CN(c2ccc(-c4cc(-c5ccc(C6(N)CC6)cn5)cn5ncc(C#N)c45)cn2)C3)cn1 [Example 17, 6-(5-(1-aminocyclopropyl)pyridin-2-yl)-4-(6-(6-((6-methoxypyridin-3-yl)methyl)-3,6-diazabicyclo[3.1.1]heptan-3-yl)pyridin-3-yl)pyrazolo[1,5-a]pyridine-3-carbonitrile]	2770 nM	4.2 nM
CC(C)(O)c1ccc(-c2cc(-c3ccc(N4C[C@@H]5[C@H](C4)[C@H]5NC(=O)c4ncccc4Cl)nc3)c3c(C#N)cnn3c2)nc1 [Example 21, 3-chloro-N-((1R,5S,6s)-3-(5-(3-cyano-6-(5-(2-hydroxypropan-2-yl)pyridin-2-yl)pyrazolo[1,5-a]pyridin-4-yl)pyridin-2-yl)-3-azabicyclo[3.1.0]hexan-6-yl)picolinamide]	351 nM	28.8 nM
CC(C)(O)c1ccc(-c2cc(-c3ccc(N4C[C@@H]5[C@H](C4)[C@@H]5NC(=O)c4ncccc4Cl)nc3)c3c(C#N)cnn3c2)nc1 [Example 3, 3-chloro-N-((1R,5S,6r)-3-(5-(3-cyano-6-(5-(2-hydroxypropan-2-yl)pyridin-2-yl)pyrazolo[1,5-a]pyridin-4-yl)pyridin-2-yl)-3-azabicyclo[3.1.0]hexan-6-yl)picolinamide]	> 10000 nM	110 nM
COc1ccc(CN2C3CC2CN(c2ccc(-c4cc(-c5ccc(C(C)(C)O)cc5)cn5ncc(C#N)c45)cn2)C3)cn1 [Example 22, 6-(4-(2-hydroxypropan-2-yl)phenyl)-4-(6-(6-((6-methoxypyridin-3-yl)methyl)-3,6-diazabicyclo[3.1.1]heptan-3-yl)pyridin-3-yl)pyrazolo[1,5-a]pyridine-3-carbonitrile]	756 nM	0.7 nM
